# Measured values as given in publication PMC9917560, “Design, Synthesis and Antimicrobial Evaluation of New N-(1-Hydroxy-1,3-dihydrobenzo[c][1,2]oxaborol-6-yl)(hetero)aryl-2-carboxamides as Potential Inhibitors of Mycobacterial Leucyl-tRNA Synthetase” (International Journal of Molecular Sciences, 2023).
# pIC50: −log10 of the molar value. Read-outs that look alike come from different tables or passages of the source.
# What was measured:
# [1] = system: Mtb laboratory ID IZAK; format: cell-based, Mycobacterium tuberculosis; conditions: for Susceptibility: CLSI breakpoints 2020
# [2] = system: Mtb laboratory ID MATI; format: cell-based, Mycobacterium tuberculosis; conditions: for Susceptibility: CLSI breakpoints 2021
# [3] = system: Mycobacterium kansasii DSM 44,162 (ATCC 12478); assay: Antimycobacterial microdilution (resazurin) vs M. kansasii; format: cell-based; conditions: read-out: MIC M. kansasii
# [4] = system: Mycobacterium tuberculosis H37Ra ITM-M006710 (ATCC 9431); assay: Antimycobacterial microdilution (resazurin) vs Mtb H37Ra; format: cell-based; conditions: Middlebrook 7H9, resazurin, recalculated from µg/mL, read-out: MIC Mtb H37Ra
# [5] = system: Mycolicibacterium aurum DSM 43,999 (ATCC 23366); assay: Antimycobacterial microdilution (resazurin) vs M. aurum; format: cell-based; conditions: Middlebrook 7H9, resazurin, read-out: MIC M. aurum
# [6] = system: Mycobacterium avium DSM 44,156 (ATCC 25291); assay: Antimycobacterial microdilution (resazurin) vs M. avium; format: cell-based; conditions: Mycobacterium avium, Middlebrook 7H9, resazurin; read-out: MIC M. avium
# [7] = system: Mycolicibacterium smegmatis DSM 43,465 (ATCC 607); assay: Antimycobacterial microdilution (resazurin) vs M. smegmatis; format: cell-based; conditions: Middlebrook 7H9, resazurin, read-out: MIC M. smeg.
# [8] = system: methicillin-resistant Staphylococcus aureus subsp. aureus (MRSA) CCM 4750 (ATCC 43300); assay: microbe, parasite or virus in culture; format: cell-based; conditions: read-out: MIC Methicillin-resistant Staphylococcus aureus subsp. aureus
# [9] = system: Acinetobacter baumannii DSM 30007 (ATCC 19606); assay: Antibacterial microdilution broth (EUCAST); format: cell-based; conditions: read-out: MIC Acinetobacter baumannii
# [10] = system: Aspergillus fumigatus ATCC 204305; assay: Antifungal microdilution broth (EUCAST); format: cell-based; conditions: Aspergillus fumigatus, ATCC204305, read-out: MIC Aspergillus fumigatus
# [11] = system: Candida tropicalis CCM 8264 (ATCC 750); assay: Antifungal microdilution broth (EUCAST); format: cell-based; conditions: read-out: MIC Candida tropicalis
# [12] = system: Staphylococcus epidermidis CCM 4418 (ATCC 12228); assay: Antibacterial microdilution broth (EUCAST); format: cell-based; conditions: read-out: MIC Staphylococcus epidermidis
# [13] = system: Candida krusei CCM 8271 (ATCC 6258); assay: Antifungal microdilution broth (EUCAST); format: cell-based; conditions: Pichia kudriavzevii, read-out: MIC Candida krusei
# [14] = system: Candida parapsilosis CCM 8260 (ATCC 22019); assay: Antifungal microdilution broth (EUCAST); format: cell-based; conditions: Lodderomyces parapsilosis, read-out: MIC Candida parapsilosis
# [15] = system: Mycobacterium tuberculosis H37Rv CNCTC My 331/88 (ATCC 27294); assay: Microplate Alamar Blue assay vs Mtb H37Rv; format: cell-based; conditions: Mycobacterium tuberculosis, pH 6.6, MABA, Middlebrook 7H9 pH 6.6, recalculated from µg/mL; read-out: MIC Mtb H37Rv
# [16] = system: Candida albicans CCM 8320 (ATCC 24433); assay: Antifungal microdilution broth (EUCAST); format: cell-based; conditions: Candida albicans, read-out: MIC Candida albicans
# [17] = system: Staphylococcus aureus subsp. aureus CCM 4223 (ATCC 29213); assay: Antibacterial microdilution broth (EUCAST); format: cell-based; conditions: read-out: MIC Staphylococcus aureus subsp. aureus
# [18] = system: Pseudomonas aeruginosa CCM 3955 (ATCC 27853); assay: Antibacterial microdilution broth (EUCAST); format: cell-based; conditions: read-out: MIC Pseudomonas aeruginosa
# [19] = system: Enterococcus faecalis CCM 4224 (ATCC 29212); assay: Antibacterial microdilution broth (EUCAST); format: cell-based; conditions: read-out: MIC Enterococcus faecalis
# [20] = system: Lichtheimia corymbifera CCM 8077; assay: Antifungal microdilution broth (EUCAST); format: cell-based; conditions: Lichtheimia corymbifera, CCM8077, read-out: MIC Lichtheimia corymbifera
# [21] = system: Trichophyton interdigitale CCM 8377 (ATCC 9533); assay: Antifungal microdilution broth (EUCAST); format: cell-based; conditions: Trichophyton interdigitale, read-out: MIC Trichophyton interdigitale
# [22] = system: Escherichia coli CCM 3954 (ATCC 25922); assay: Antibacterial microdilution broth (EUCAST); format: cell-based; conditions: Escherichia coli, read-out: MIC Escherichia coli
# [23] = system: Klebsiella pneumoniae CCM 4415 (ATCC 10031); assay: Antibacterial microdilution broth (EUCAST); format: cell-based; conditions: Klebsiella pneumoniae, read-out: MIC Klebsiella pneumoniae
# [24] = system: Aspergillus flavus CCM 8363; assay: Antifungal microdilution broth (EUCAST); format: cell-based; conditions: Aspergillus flavus, CCM8363, read-out: MIC Aspergillus flavus
# [25] = system: HepG2 cell line; assay: Cytotoxicity screening, CellTiter 96 assay; conditions: for pIC50: Homo sapiens, HepG2, 24 h, read-out: IC50 HepG2; for toxicity to HepG2 up to highest tested concentration: tested up to 500 µM (2, 3), 250 µM (12, 17), 100 µM (6, 7, 11) because of solubility
compound,measurement,setting,value
"[H]/N=C(/N)N[C@H]1[C@H](O)[C@@H](O)[C@H](O[C@@H]2O[C@@H](C)[C@](O)(C=O)[C@H]2O[C@@H]2O[C@@H](CO)[C@H](O)[C@@H](O)[C@@H]2NC)[C@@H](N/C(N)=N\[H])[C@@H]1O [STM, streptomycin]",Concentration,"[1]; strain IZAK, CLSI 2020",6.88 µM
same,Susceptibility,[1]; strain IZAK,resistant
same,Concentration,"[2]; strain MATI, CLSI 2021",>27.51 µM
same,Susceptibility,[2]; strain MATI,resistant
"CO[C@H]1/C=C/O[C@@]2(C)Oc3c(C)c(O)c4c(O)c(c(/C=N/N5CCN(C)CC5)c(O)c4c3C2=O)NC(=O)/C(C)=C\C=C\[C@H](C)[C@H](O)[C@@H](C)[C@@H](O)[C@@H](C)[C@H](OC(C)=O)[C@@H]1C [RIF, rifampicin, reference compound]",MIC,"[3]; Middlebrook 7H9, resazurin",0.06 µM
same,Concentration,[1],>9.72 µM
same,Susceptibility,[1]; strain IZAK,resistant
same,MIC,[4],0.00759 µM
same,MIC,[5],0.47 µM
same,MIC,[6],0.08 µM
same,Concentration,[2],>9.72 µM
same,Susceptibility,[2]; strain MATI,resistant
same,MIC,[7],15.2 µM
"O=C(Nc1ccc2c(c1)B(O)OC2)c1ncc[nH]c1=O [Compound 8, N-(1-hydroxy-1,3-dihydrobenzo[c][1,2]oxaborol-6-yl)-3-oxo-3,4-dihydropyrazine-2-carboxamide]",MIC,[8]; 24 h,125 µM
same,MIC,[8]; 48 h,125 µM
same,MIC,[3],231 µM
same,MIC,[9]; 24h incubation,> 500 µM
same,MIC,[9]; 48h incubation,> 500 µM
same,MIC,[10]; 24h incubation,> 500 µM
same,MIC,[10]; 48h incubation,> 500 µM
same,MIC,[11]; 24h incubation,> 500 µM
same,MIC,[11]; 48h incubation,> 500 µM
same,melting point,,326.4 to 328.3 °C (dec.)
same,MIC,[12]; 24h incubation,500 µM
same,MIC,[12]; 48h incubation,500 µM
same,MIC,[13]; 24h incubation,> 500 µM
same,MIC,[13]; 48h incubation,> 500 µM
same,MIC,[14]; 24h incubation,> 500 µM
same,MIC,[14]; 48h incubation,> 500 µM
same,MIC,[15],92.2 µM
same,MIC,[16]; 24h incubation,> 500 µM
same,MIC,[16]; 48h incubation,> 500 µM
same,MIC,[17]; 24 h,125 µM
same,MIC,[17]; 48 h,125 µM
same,MIC,[4],231 µM
same,MIC,[18]; 24h incubation,> 500 µM
same,MIC,[18]; 48h incubation,> 500 µM
same,MIC,[19]; 24h incubation,> 500 µM
same,MIC,[19]; 48h incubation,> 500 µM
same,MIC,[5],28.8 µM
same,MIC,[20]; 24h incubation,> 500 µM
same,MIC,[20]; 48h incubation,> 500 µM
same,MIC,[6],57.6 µM
same,MIC,[21]; 72h incubation,> 500 µM
same,MIC,[21]; 120h incubation,> 500 µM
same,MIC,[22]; 24h incubation,> 500 µM
same,MIC,[22]; 48h incubation,> 500 µM
same,MIC,[23]; 24h incubation,> 500 µM
same,MIC,[23]; 48h incubation,> 500 µM
same,MIC,[7],28.8 µM
same,MIC,[24]; 24h incubation,> 500 µM
same,MIC,[24]; 48h incubation,> 500 µM
same,pIC50,[25],< 3.00
"NC(=O)c1cnccn1 [PZA, pyrazinamide]",Concentration,"[1]; strain IZAK, CLSI 2020",>129.96 µM
same,Susceptibility,[1]; strain IZAK,resistant
same,Concentration,"[2]; strain MATI, CLSI 2021",>1039.70 µM
same,Susceptibility,[2]; strain MATI,resistant
"Nc1nccnc1C(=O)Nc1ccc2c(c1)B(O)OC2 [Compound 6, 3-amino-N-(1-hydroxy-1,3-dihydrobenzo[c][1,2]oxaborol-6-yl)pyrazine-2-carboxamide]",MIC,[8]; 24 h,> 500 µM
same,MIC,[8]; 48 h,> 500 µM
same,MIC,[3],> 1850 µM
same,MIC,[9]; 24h incubation,> 500 µM
same,MIC,[9]; 48h incubation,> 500 µM
same,MIC,[10]; 24h incubation,> 500 µM
same,MIC,[10]; 48h incubation,> 500 µM
same,MIC,[11]; 24h incubation,> 500 µM
same,MIC,[11]; 48h incubation,> 500 µM
same,melting point,,246.6 to 249.4 °C
same,MIC,[12]; 24h incubation,> 500 µM
same,MIC,[12]; 48h incubation,> 500 µM
same,MIC,[13]; 24h incubation,> 500 µM
same,MIC,[13]; 48h incubation,> 500 µM
same,MIC,[14]; 24h incubation,> 500 µM
same,MIC,[14]; 48h incubation,> 500 µM
same,MIC,[15],> 370 µM
same,MIC,[16]; 24h incubation,> 500 µM
same,MIC,[16]; 48h incubation,> 500 µM
same,MIC,[17]; 24h incubation,> 500 µM
same,MIC,[17]; 48h incubation,> 500 µM
same,MIC,[4],> 1850 µM
same,MIC,[18]; 24h incubation,> 500 µM
same,MIC,[18]; 48h incubation,> 500 µM
same,MIC,[19]; 24h incubation,> 500 µM
same,MIC,[19]; 48h incubation,> 500 µM
same,MIC,[5],14.5 µM
same,MIC,[20]; 24h incubation,> 500 µM
same,MIC,[20]; 48h incubation,> 500 µM
same,MIC,[6],> 1850 µM
same,MIC,[21]; 72h incubation,> 500 µM
same,MIC,[21]; 120h incubation,> 500 µM
same,MIC,[22]; 24h incubation,> 500 µM
same,MIC,[22]; 48h incubation,> 500 µM
same,MIC,[23]; 24h incubation,> 500 µM
same,MIC,[23]; 48h incubation,> 500 µM
same,MIC,[7],463 µM
same,MIC,[24]; 24h incubation,> 500 µM
same,MIC,[24]; 48h incubation,> 500 µM
same,pIC50,[25],< 4.00
same,toxicity to HepG2 up to highest tested concentration,[25],non-toxic
"O=C(Nc1ccc2c(c1)B(O)OC2)c1ccc(C(F)(F)F)nc1 [Compound 12, N-(1-hydroxy-1,3-dihydrobenzo[c][1,2]oxaborol-6-yl)-6-(trifluoromethyl)nicotinamide]",MIC,[8]; 24 h,> 500 µM
same,MIC,[8]; 48 h,> 500 µM
same,MIC,[3],194 µM
same,MIC,[9]; 24h incubation,> 500 µM
same,MIC,[9]; 48h incubation,> 500 µM
same,MIC,[10]; 24h incubation,> 500 µM
same,MIC,[10]; 48h incubation,> 500 µM
same,MIC,[11]; 24h incubation,> 500 µM
same,MIC,[11]; 48h incubation,> 500 µM
same,melting point,,227.3 to 229.4 °C
same,MIC,[12]; 24h incubation,> 500 µM
same,MIC,[12]; 48h incubation,> 500 µM
same,MIC,[13]; 24h incubation,> 500 µM
same,MIC,[13]; 48h incubation,> 500 µM
same,MIC,[14]; 24h incubation,> 500 µM
same,MIC,[14]; 48h incubation,> 500 µM
same,MIC,[15],155 µM
same,MIC,[16]; 24h incubation,> 500 µM
same,MIC,[16]; 48h incubation,> 500 µM
same,MIC,[17]; 24h incubation,> 500 µM
same,MIC,[17]; 48h incubation,> 500 µM
same,MIC,[4],194 µM
same,MIC,[18]; 24h incubation,> 500 µM
same,MIC,[18]; 48h incubation,> 500 µM
same,MIC,[19]; 24h incubation,> 500 µM
same,MIC,[19]; 48h incubation,> 500 µM
same,MIC,[5],12.1 µM
same,MIC,[20]; 24h incubation,> 500 µM
same,MIC,[20]; 48h incubation,> 500 µM
same,MIC,[6],388 µM
same,MIC,[21]; 72h incubation,> 500 µM
same,MIC,[21]; 120h incubation,> 500 µM
same,MIC,[22]; 24h incubation,> 500 µM
same,MIC,[22]; 48h incubation,> 500 µM
same,MIC,[23]; 24h incubation,> 500 µM
same,MIC,[23]; 48h incubation,> 500 µM
same,MIC,[7],24.2 µM
same,MIC,[24]; 24h incubation,> 500 µM
same,MIC,[24]; 48h incubation,> 500 µM
same,pIC50,[25],< 3.60
same,toxicity to HepG2 up to highest tested concentration,[25],non-toxic
